Assay [1] concerns the target T1, SARS-CoV-2 PLpro (nsp3 1564–1878) (Severe acute respiratory syndrome coronavirus 2, UniProt P0DTD1). Nature of the assay: biochemical. Also noted: FRET-quenched peptide (Pro3) cleavage by PLpro, 10 min pre-incubation, slope over 20 min, normalised to no-compound control. As to conditions: high concentration screen, read-out: % of control remaining.
Assay [2] has as its target T1, SARS-CoV-2 PLpro (nsp3 1564–1878). The experiment in a line: biochemical. On the set-up: FRET-quenched peptide (Pro3) cleavage by PLpro, 10 min pre-incubation, slope over 20 min, normalised to no-compound control. Particulars: low concentration screen, read-out: % of control remaining.

Here are results for 33 molecules from PMC8286840, “Identifying SARS-CoV-2 antiviral compounds by screening for small molecule inhibitors of Nsp3 papain-like protease” (Biochemical Journal, 2021).

Structures can show the parent of a compound that is named as a salt. Where two headings read alike, the source gives them in different places.

`Cn1c(=O)c2c(ncn2CC(O)CO)n(C)c1=O` (centres unmarked) [Dyphylline]: the remaining activity at 3.75 µM in assay [1] (Well no.=8092) was 95.3%. Further, the remaining activity at 1.25 µM in assay [2] (Well no.=8092) came to 93.8%.

Take `CC(C)CN(C[C@@H](OP(=O)(O)O)[C@H](Cc1ccccc1)NC(=O)O[C@H]1CCOC1)S(=O)(=O)c1ccc(N)cc1` [Fosamprenavir]: the remaining activity at 3.75 µM in assay [1] (Well no.=7846) came out at 102%. For the same molecule, the remaining activity at 1.25 µM in assay [2] (Well no.=7846) was 104%.

Consider `CN(NC(=O)CC(=O)NN(C)C(=S)c1ccccc1)C(=S)c1ccccc1` [Elesclomol], for which the remaining activity at 3.75 µM in assay [1] (Well no.=5001) was 107%; in assay [1] (Well no.=6406), 111%. The remaining activity at 1.25 µM came to 104% in assay [2] (Well no.=5001) and 102% in assay [2] (Well no.=6406).

On to `Cc1ccc(C(=O)c2cc(O)c(O)c([N+](=O)[O-])c2)cc1` [Tolcapone], for which the remaining activity at 3.75 µM in assay [1] (Well no.=1790) is 96%. Further, the remaining activity at 1.25 µM in assay [2] (Well no.=1790) worked out at 97.4%.

For the molecule `C[N+]1(C)[C@@H]2C[C@@H](OC(=O)[C@H](CO)c3ccccc3)C[C@H]1[C@@H]1O[C@@H]12` [(-)-Scopolamine methyl bromide], the remaining activity at 3.75 µM in assay [1] (Well no.=1510) stood at 97.5%. In assay [2] (Well no.=1510), the remaining activity at 1.25 µM is 96.7%.

Turning to `COc1cc(C(=O)O[C@H]2C/C(C)=C/CC/C(C)=C/[C@H](O)[C@@H]2C(C)C)ccc1O` [Tschimganidin], the remaining activity at 3.75 µM in assay [1] (Well no.=3207) was 100%. Besides, in assay [2] (Well no.=3207), the remaining activity at 1.25 µM was 89.2%.

Consider `COc1ccc(F)c(F)c1C(=O)c1cnc(NC2CCN(S(C)(=O)=O)CC2)nc1N` [R547], for which the remaining activity at 3.75 µM in assay [1] (Well no.=4653) came to 93.6%. Moreover, the remaining activity at 1.25 µM in assay [2] (Well no.=4653) worked out at 94.4%.

With `O=C(O)COc1ccc(C(=O)c2cccs2)c(Cl)c1Cl` [Tienilic Acid], in assay [1] (Well no.=5851), the remaining activity at 3.75 µM was found to be 102%. Moreover, in assay [2] (Well no.=5851), the remaining activity at 1.25 µM worked out at 105%.

`C[C@H]1CC[C@@H]2[C@@H](C)[C@H]3[C@H](C[C@H]4[C@@H]5CC[C@H]6C[C@@H](O)CC[C@]6(C)[C@H]5CC[C@]34C)N2C1` [Demissidine]: in assay [1] (Well no.=3202), the remaining activity at 3.75 µM came to 107%. The remaining activity at 1.25 µM in assay [2] (Well no.=3202) was determined as 104%.

Take `N[C@@H](Cn1ccc(=O)[nH]c1=O)C(=O)O` [S(-)-Willardiine]: the remaining activity at 3.75 µM in assay [1] (Well no.=1244) stood at 99.9%. In addition, the remaining activity at 1.25 µM in assay [2] (Well no.=1244) worked out at 100%.

For `COc1ccc(CCN2CCC(Nc3nc4ccccc4n3Cc3ccc(F)cc3)CC2)cc1` [Astemizole], the remaining activity at 3.75 µM in assay [1] (Well no.=2054) turned out to be 102%. Moreover, the remaining activity at 1.25 µM in assay [2] (Well no.=2054) was 102%.

Turning to `COc1cc2c(cc1O)C[C@H]1c3c(cc(O)c(OC)c3-2)CCN1C` [Boldine], the remaining activity at 3.75 µM in assay [1] (Well no.=3166) worked out at 101%. The remaining activity at 1.25 µM in assay [2] (Well no.=3166) amounted to 102%.

As to `CC1CNc2c(cccc2S(=O)(=O)N[C@@H](CCCNC(=N)N)C(=O)N2CC[C@@H](C)C[C@@H]2C(=O)O)C1` (some centres unmarked) [Argatroban], the remaining activity at 3.75 µM in assay [1] (Well no.=2196) was 97.9%. In assay [2] (Well no.=2196), the remaining activity at 1.25 µM came to 97.1%.

With `CNCCC[C@]12CC[C@H](c3ccccc31)c1ccccc12` [Maprotiline hydrochloride], the remaining activity at 3.75 µM in assay [1] (Well no.=845) came to 103%. Moreover, the remaining activity at 1.25 µM in assay [2] (Well no.=845) worked out at 103%.

Consider `OCc1ccc(-c2ccc(-c3ccc(CO)s3)o2)s1` [RITA (NSC 652287)], for which, in assay [1] (Well no.=4741), the remaining activity at 3.75 µM was found to be 108%. Further, the remaining activity at 1.25 µM in assay [2] (Well no.=4741) is 103%.

As to `CNc1ncnc2c1ncn2[C@H]1C[C@H](OP(=O)(O)O)[C@@H](COP(=O)(O)O)O1` [MRS 2179], the remaining activity at 3.75 µM in assay [1] (Well no.=926) was 103%. The remaining activity at 1.25 µM in assay [2] (Well no.=926) was 98.6%.

With `Cc1ccc(Oc2ccnc3cc(-c4cnn(C5CCNCC5)c4)ccc23)cc1` [HS-1371], the remaining activity at 3.75 µM in assay [1] (Well no.=6820) stood at 85.5%. In addition, the remaining activity at 1.25 µM in assay [2] (Well no.=6820) is 91.1%.

With `O=S(=O)(c1c(O)c(Cl)cc(Cl)c1Cl)c1c(O)c(Cl)cc(Cl)c1Cl` [p38 MAP Kinase Inhibitor IV], the remaining activity at 3.75 µM in assay [1] (Well no.=2527) came out at 103%. In assay [2] (Well no.=2527), the remaining activity at 1.25 µM came to 97.2%.

Take `O=C(/C=C/c1cccc(S(=O)(=O)Nc2ccccc2)c1)NO` [Belinostat (PXD101)]: the remaining activity at 3.75 µM in assay [1] (Well no.=5009) is 91.9%. For the same molecule, in assay [2] (Well no.=5009), the remaining activity at 1.25 µM was 98.9%.

With `N=C(N)NC(=O)Cc1c(Cl)cccc1Cl` [Guanfacine (hydrochloride)], the remaining activity at 3.75 µM in assay [1] (Well no.=6275) was found to be 102%. For the same molecule, the remaining activity at 1.25 µM in assay [2] (Well no.=6275) amounted to 101%.

For `CC[C@H]1CN2CCc3cc(OC)c(OC)cc3[C@@H]2C[C@@H]1C[C@H]1NCCc2cc(O)c(OC)cc21`, in assay [1] (Well no.=3501), the remaining activity at 3.75 µM came out at 88.7%. In addition, the remaining activity at 1.25 µM in assay [2] (Well no.=3501) came to 96.1%.

`CN(C)C(=O)Oc1cccc([N+](C)(C)C)c1` [Neostigmine]: the remaining activity at 3.75 µM in assay [1] (Well no.=1558) came to 103%. Also, the remaining activity at 1.25 µM in assay [2] (Well no.=1558) was 106%.

Turning to `NC(Cc1cc(O)c(O)cc1O)C(=O)O` (racemic) [6-Hydroxy-DL-DOPA], the remaining activity at 3.75 µM in assay [1] (Well no.=752) was determined as 89.4%. In addition, the remaining activity at 1.25 µM in assay [2] (Well no.=752) came out at 88.3%.

Regarding `Oc1ccc([C@H]2COc3cc(O)ccc3C2)cc1` [Equol], in assay [1] (Well no.=5252), the remaining activity at 3.75 µM was determined as 99.3%. Also, in assay [2] (Well no.=5252), the remaining activity at 1.25 µM amounted to 99.7%.

As for `Nc1ccc(C(=O)O)cc1` [4-Aminobenzoic acid], the remaining activity at 3.75 µM in assay [1] (Well no.=6203) was 101%. Further, in assay [2] (Well no.=6203), the remaining activity at 1.25 µM was found to be 97.3%.

Consider `CCOc1cc(N)c(Cl)cc1C(=O)NCC1CN(Cc2ccc(F)cc2)CCO1` (centres unmarked) [Mosapride citrate], for which the remaining activity at 3.75 µM in assay [1] (Well no.=4807) is 103%. For the same molecule, in assay [2] (Well no.=4807), the remaining activity at 1.25 µM amounted to 101%.

Take `C=CCN1CCc2c(cc(O)c(O)c2Cl)C(c2ccccc2)C1` (racemic): the remaining activity at 3.75 µM in assay [1] (Well no.=725) worked out at 96.5%. In addition, the remaining activity at 1.25 µM in assay [2] (Well no.=725) came to 96.8%.

`Fc1ccc(CN(C2=NCCN2)c2c(Cl)cccc2Cl)cc1` [IMID-4F hydrochloride]: the remaining activity at 3.75 µM in assay [1] (Well no.=718) is 96.8%. Further, the remaining activity at 1.25 µM in assay [2] (Well no.=718) is 96.3%.

`COc1ccccc1O` [Guaiacol]: the remaining activity at 3.75 µM in assay [1] (Well no.=1626) amounted to 98.8%. Besides, in assay [2] (Well no.=1626), the remaining activity at 1.25 µM turned out to be 96.8%.

Consider `N#Cc1cc(-c2n[nH]c(-c3ccncc3)n2)ccn1` [Topiroxostat], for which, in assay [1] (Well no.=8440), the remaining activity at 3.75 µM is 97.1%. Besides, the remaining activity at 1.25 µM in assay [2] (Well no.=8440) stood at 96.2%.

In the case of `CC(=O)OCC(=O)[C@@]1(O)CC[C@H]2[C@@H]3CCC4=CC(=O)CC[C@]4(C)[C@@]3(F)[C@@H](O)C[C@@]21C` [Fludrocortisone acetate], in assay [1] (Well no.=5827), the remaining activity at 3.75 µM is 104%. In assay [2] (Well no.=5827), the remaining activity at 1.25 µM was 103%.

Take `Cc1cccc(C)c1NC1=NCCCS1` [Xylazine]: the remaining activity at 3.75 µM in assay [1] (Well no.=1652) is 106%. The remaining activity at 1.25 µM in assay [2] (Well no.=1652) amounted to 103%.

Consider `CCOC(=O)C1=C(C)NC(C)=C(C(=O)OCC)C1c1ccccc1/C=C/C(=O)OC(C)(C)C` [Lacidipine], for which the remaining activity at 3.75 µM in assay [1] (Well no.=1798) worked out at 100%. For the same molecule, the remaining activity at 1.25 µM in assay [2] (Well no.=1798) was 99.9%.
